What was measured:
Format in all cases: cell-based
[1] = system: secretion of amyloid peptide β1-40 (Aβ1-40); assay: Inhibition of β-amyloid secretion (CHO7w cells stably transfected with human APP, ELISA); settings: CHO-7W, 24 h incubation, range stated for the listed compounds together
Method: The inhibition caused by the compounds on the secretion of amyloid peptide β1-40 (Aβ1-40) was determined by measuring the levels of this peptide in cell supernatants after incubating the cells with several concentrations of the tested compound. A CHO7w cell line, stably transfected with human amyloid precursor protein (APP), was used. Cells were dispensed in 96-well culture plates (5,000 cells/well) and grown in DMEM supplemented with 2% (v/v) foetal bovine serum, 100 U/ml penicillin, 100 μg/ml streptomycin, 2 mM L-glutamine and 200 μg/ml G418 in the presence of several concentrations of the tested compound which had been previously dissolved in DMSO (1% (v/v) DMSO final concentration). After a 24 h incubation the amount of Aβ1-40 secreted to the medium was measured with an ELISA-based commercial kit (Human Amyloid β-40 ELISA High Sensitivity Kit, Millipore, Billerica, Mass., USA) using absorbance at 450 nm as the final readout. In the culture plate several wells were included as a control for lack of Aβ1-40 secretion, in these wells the cells were incubated in the presence of 16% (v/v) DMSO to inhibit cell growth therefore abolishing Aβ1-40 secretion. Likewise, several wells were also included as a control for full Aβ1-40 secretion, in these wells the cells were grown in the presence of 1% (v/v) DMSO. The absorbance of each tested sample was normalized to that of the control wells, so that for every compound concentration the percentage of inhibition was calculated with the following equation:
[formula] where “S” is the absorbance of the sample being considered, “E” is the average absorbance of wells lacking Aβ1-40 secretion and “B” is the average absorbance of wells with full Aβ1-40 secretion. The inhibition values obtained at every compound concentration were fitted to a 4-parameters isotherm equation, as described above, to calculate the […] (i.e., the concentration causing 50% of inhibition of Ab1-40 secretion).

[2] = system: SH-SY5Y human neuroblastoma cells; assay: Protection against hydrogen peroxide-induced cell death; settings: Homo sapiens; SH-SY5Y cells, 1 h preincubation, 100 μM hydrogen peroxide, 24 h, LDH readout of live cells
Method: The aim of this assay is to determine the neuroprotective effect of the compounds when human neuroblastoma cells are exposed to the oxidative stress induced by hydrogen peroxide, which leads to cell death. Therefore the protective effect of the compounds was measured by monitoring cell survival using a suitable commercial kit (Cytotoxicity Detection Kit, Roche Diagnostics GmbH, Mannheim, Germany) based on the quantification of the lactate dehydrogenase activity obtained from lysates of the remaining live cells with a colorimetric assay yielding absorbance at 492 nm as the final readout.
SH-SY5Y human neuroblastoma cells were seeded into 96-well culture plate at a density of 10,000 cells/well. Cells were preincubated for one hour with different concentrations of the compound at a 1% (v/v) DMSO concentration in an equivolumetric mixture of Minimum Essential Medium (MEM) and Nutrient Mixture HAM F12 supplemented with 10% foetal bovine serum, 100 U/ml penicillin, 100 μg/ml streptomycin, 1 mM each of non-essential aminoacids (commercial preparation from GIBCO, Paisley, UK) and 2 mM L-glutamine. Hydrogen peroxide was then added to reach 100 μM and the incubation was extended for 24 h. Then the medium was removed and live cells, which remained attached to the bottom of the plate, were lysed by incubating them during 5 min with 50 μl of 1% (v/v) Triton X-100 in Krebs-Hepes buffer (10 mM Hepes pH7.3 with 145 mM NaCl, 5.5 mM KCl, 1 mM MgCl2, 2 mM CaCl2 and 1 mM glucose). This lysate was used to measure LDH activity using the commercial kit according to the manufacturer's instructions. In the culture plate several wells were included as a control of cell death, in these wells the cells were preincubated with 1% (v/v) DMSO before hydrogen peroxide addition. Likewise, several wells were included as control for full cell survival, in these wells the addition of H2O2 was omitted. The absorbance of each tested sample was normalized to that of the control wells, so that for every compound concentration the percentage of protective effect was calculated with the following equation:
[formula] where “S” is the absorbance of the sample being considered, “E” is the average absorbance of wells used as control of full cell survival and “B” is the average absorbance of wells used as control of cell death. The values obtained at every compound concentration were finally used to calculate the EC50 (i.e., the concentration causing 50% of protective effect) of the tested compound. For that purpose the data were fitted to a classical 4-parameters isotherm equation using the nonlinear regression function of GraphPad™ Prism 5.0 (GraphPad Software Inc.), such equation is described below:
[formula] where “L” is the lower asymptote of the theoretical sigmoidal curve, “H” is the higher asymptote, “C” is the concentration of compound and “n” is the Hill coefficient.

[3] = system: secretion of soluble amyloid precursor protein-α (sAPPα); assay: Stimulation of sAPPα secretion (CHO7w cells stably transfected with human APP, AlphaLISA)
Method: The effect of the compounds on the stimulation of the secretion of soluble amyloid precursor protein-α (sAPPα) was determined by measuring the levels of this protein in cell supernatants after incubating the cells with several concentrations of the tested compound. A CHO7w cell line, stably transfected with human APP, was used. Cells were dispensed in 96-well culture plates (5,000 cells/well) and grown in DMEM supplemented with 2% (v/v) foetal bovine serum, 100 U/ml penicillin, 100 μg/ml streptomycin, 2 mM L-glutamine and 200 μg/ml G418 in the presence of several concentrations of the tested compound which had been previously dissolved in DMSO (1% (v/v) DMSO final concentration). After 24 h of incubation 5 μl of the culture supernatants were withdrawn and their sAPPα. concentration was measured with a commercial kit (AlphaLISA® Amyloid Precursor Protein-α Secreted Research kit, PerkinElmer, Waltham, Mass., USA) following manufacturer's instructions. In the culture plate several wells were included as a control for background sAPPα secretion, in these wells the cells were incubated with 1% (v/v) DMSO. The results obtained for each tested sample were normalized by using the following equation:
[formula] where “S” is the sAPPα concentration of the sample being considered, “B” is the average sAPPα concentration of wells used for background secretion and “M” is the sAPPα concentration of wells yielding the highest value. These normalized values obtained at every compound concentration were finally used to calculate the EC50 of the tested compound fitting them to a 4-parameters isotherm equation as already described. The average EC50s ranges are reported in Table 4 together with the maximum observed effect (and the concentration at which this effect was reached), this latter value was calculated for each compound according to the following equation:
[formula] with “M” and “B” as defined above.

IC50 [1]: 0.3 to 42 µM
EC50 ([3]; Homo sapiens, CHO-7W, CHO7w cells, 24 h incubation, range stated for the listed compounds together): 0.5 to 11 µM
SMILES: COc1cc(CNS(=O)(=O)c2ccc(Cl)s2)nc(-c2ccccn2)c1 [Compound 2, 5-Chloro-thiophene-2-sulfonic acid (4-methoxy-[2,2′]bipyridinyl-6-ylmethyl)-amide]
EC50 [2]: 800 nM
Emax ([3]; Homo sapiens, CHO-7W, CHO7w cells, 24 h incubation, range stated for the listed compounds together, read-out: maximum effect (sAPPα secretion)): 250 to 500%
rank of maximum effect among compounds tested (sAPPα secretion) ([3]; comparison among tested compounds): maximum effect was obtained

Reference: patent publication US9284296B2, “Bipyridine sulfonamide derivatives for the treatment of neurodegenerative diseases or conditions” (AUBERGINE PHARMACEUTICALS LLC, priority 2010, dated 2016)
